Laboratory results reported in ChEMBL document CHEMBL1139937, “Novel 3-galloylamido-N'-substituted-2,6-piperidinedione-N-acetamide peptidomimetics as metalloproteinase inhibitors” (Bioorg Med Chem Lett, 2007).

Assays:
Aminopeptidase N = molecular target: T1, Aminopeptidase N (Sus scrofa, UniProt P15145); assay: Inhibition of pig kidney microsomal aminopeptidase assessed as liberation of p-nitroanilide
T1 sequence (P15145 whole entry): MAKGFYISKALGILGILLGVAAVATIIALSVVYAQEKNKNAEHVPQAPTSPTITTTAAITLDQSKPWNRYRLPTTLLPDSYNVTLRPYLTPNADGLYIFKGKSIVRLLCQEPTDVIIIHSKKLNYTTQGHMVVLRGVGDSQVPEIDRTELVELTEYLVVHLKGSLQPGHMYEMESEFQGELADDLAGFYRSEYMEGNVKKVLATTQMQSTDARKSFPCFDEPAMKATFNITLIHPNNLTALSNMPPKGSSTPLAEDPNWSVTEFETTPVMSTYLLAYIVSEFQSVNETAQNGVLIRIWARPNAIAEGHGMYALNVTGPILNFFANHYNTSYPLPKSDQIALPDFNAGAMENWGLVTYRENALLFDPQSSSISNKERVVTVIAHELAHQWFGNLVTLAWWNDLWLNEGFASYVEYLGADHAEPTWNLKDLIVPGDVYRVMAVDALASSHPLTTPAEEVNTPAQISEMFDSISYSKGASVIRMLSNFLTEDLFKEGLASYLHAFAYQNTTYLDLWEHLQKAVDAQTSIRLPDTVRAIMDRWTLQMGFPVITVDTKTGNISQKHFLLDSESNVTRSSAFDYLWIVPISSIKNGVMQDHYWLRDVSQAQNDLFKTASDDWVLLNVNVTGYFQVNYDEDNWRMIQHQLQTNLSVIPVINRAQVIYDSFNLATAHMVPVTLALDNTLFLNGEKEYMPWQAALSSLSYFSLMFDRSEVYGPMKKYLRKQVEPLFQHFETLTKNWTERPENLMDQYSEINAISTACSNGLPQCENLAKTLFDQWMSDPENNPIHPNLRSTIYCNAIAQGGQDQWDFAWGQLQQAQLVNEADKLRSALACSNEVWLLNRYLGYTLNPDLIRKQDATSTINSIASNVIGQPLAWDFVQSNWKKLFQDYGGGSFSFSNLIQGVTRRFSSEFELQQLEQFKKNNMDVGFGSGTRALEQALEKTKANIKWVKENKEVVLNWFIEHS

[1] = molecular target: 72 kDa type IV collagenase (Homo sapiens, UniProt P08253); assay: Inhibition of MMP2 after 30 mins
Chain of 72 kDa type IV collagenase (P08253 whole entry): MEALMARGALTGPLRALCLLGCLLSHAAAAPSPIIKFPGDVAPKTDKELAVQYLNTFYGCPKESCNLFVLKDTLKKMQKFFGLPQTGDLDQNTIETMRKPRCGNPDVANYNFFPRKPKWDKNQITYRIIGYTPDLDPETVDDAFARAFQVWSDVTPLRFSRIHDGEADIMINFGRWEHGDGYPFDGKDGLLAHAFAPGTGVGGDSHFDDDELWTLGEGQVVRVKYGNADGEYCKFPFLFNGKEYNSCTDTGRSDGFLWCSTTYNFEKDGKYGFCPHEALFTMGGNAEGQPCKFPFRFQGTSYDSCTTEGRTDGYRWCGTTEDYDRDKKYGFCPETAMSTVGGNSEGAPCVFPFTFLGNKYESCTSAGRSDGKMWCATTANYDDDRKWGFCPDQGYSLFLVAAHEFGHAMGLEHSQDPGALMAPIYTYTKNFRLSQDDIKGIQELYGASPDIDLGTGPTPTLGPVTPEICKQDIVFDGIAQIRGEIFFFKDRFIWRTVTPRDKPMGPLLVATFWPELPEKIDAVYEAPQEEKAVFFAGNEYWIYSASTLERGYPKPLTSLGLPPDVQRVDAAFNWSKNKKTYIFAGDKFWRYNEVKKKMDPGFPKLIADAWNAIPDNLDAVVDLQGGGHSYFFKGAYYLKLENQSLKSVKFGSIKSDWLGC

Compound | IC50 (Aminopeptidase N) | IC50 [1]
COC(=O)[C@H](Cc1c[nH]c2ccccc12)NC(=O)CN1C(=O)CC[C@H](NC(=O)c2cc(OC)c(OC)c(OC)c2)C1=O | 43.1 µM | 1.2 µM
COC(=O)[C@H](Cc1cnc[nH]1)NC(=O)CN1C(=O)CC[C@H](NC(=O)c2cc(OC)c(OC)c(OC)c2)C1=O | 5.2 µM | 13 µM
COC(=O)[C@@H](Cc1ccccc1)NC(=O)CN1C(=O)CC[C@H](NC(=O)c2cc(OC)c(OC)c(OC)c2)C1=O | 46.2 µM | 1.4 µM
COC(=O)[C@H](Cc1ccccc1)NC(=O)CN1C(=O)CC[C@H](NC(=O)c2cc(OC)c(OC)c(OC)c2)C1=O | 11 µM | 1.3 µM
COC(=O)[C@H](CS)NC(=O)CN1C(=O)CC[C@H](NC(=O)c2cc(OC)c(OC)c(OC)c2)C1=O | 50.3 µM | 1.7 µM
COC(=O)CN1C(=O)CC[C@H](NC(=O)c2cc(OC)c(OC)c(OC)c2)C1=O | 63.4 µM | 10.6 µM
COc1cc(C(=O)N[C@H]2CCC(=O)N(CC(=O)NO)C2=O)cc(OC)c1OC | 3.1 µM | 2.2 µM
COc1cc(C(=O)N[C@H]2CCC(=O)N(CC(=O)O)C2=O)cc(OC)c1OC | 49.8 µM | 4 µM
COC(=O)CNC(=O)CN1C(=O)CC[C@H](NC(=O)c2cc(OC)c(OC)c(OC)c2)C1=O | 55.4 µM | 4.4 µM
COC(=O)[C@H](CCCNC(N)=N[N+](=O)[O-])NC(=O)CN1C(=O)CC[C@H](NC(=O)c2cc(OC)c(OC)c(OC)c2)C1=O | 42 µM | 0.3 µM
COC(=O)[C@@H](NC(=O)CN1C(=O)CC[C@H](NC(=O)c2cc(OC)c(OC)c(OC)c2)C1=O)C(C)C | 21.4 µM | 1 µM
COC(=O)[C@H](CC(C)C)NC(=O)CN1C(=O)CC[C@H](NC(=O)c2cc(OC)c(OC)c(OC)c2)C1=O | 46.2 µM | 3.8 µM
CC[C@H](C)[C@H](NC(=O)CN1C(=O)CC[C@H](NC(=O)c2cc(OC)c(OC)c(OC)c2)C1=O)C(=O)OC | 49.3 µM | 4.3 µM
COC(=O)CCNC(=O)CN1C(=O)CC[C@H](NC(=O)c2cc(OC)c(OC)c(OC)c2)C1=O | 53.7 µM | 2.2 µM
COC(=O)[C@H](C)NC(=O)CN1C(=O)CC[C@H](NC(=O)c2cc(OC)c(OC)c(OC)c2)C1=O | 18.9 µM | 1.2 µM
COC(=O)[C@H](CCSC)NC(=O)CN1C(=O)CC[C@H](NC(=O)c2cc(OC)c(OC)c(OC)c2)C1=O | 20.7 µM | 1.2 µM
COC(=O)[C@H](CCCCNC(=O)c1ccccc1)NC(=O)CN1C(=O)CC[C@H](NC(=O)c2cc(OC)c(OC)c(OC)c2)C1=O | 38.1 µM | 0.6 µM
COC(=O)[C@H](Cc1ccc(O)cc1)NC(=O)CN1C(=O)CC[C@H](NC(=O)c2cc(OC)c(OC)c(OC)c2)C1=O | 44.8 µM | 0.3 µM
COC(=O)[C@@H](NC(=O)CN1C(=O)CC[C@H](NC(=O)c2cc(OC)c(OC)c(OC)c2)C1=O)[C@@H](C)O | 51.9 µM | 1.8 µM
COC(=O)[C@](C)(Cl)NC(=O)CN1C(=O)CC[C@H](NC(=O)c2cc(OC)c(OC)c(OC)c2)C1=O | 50 µM | 15.6 µM
COC(=O)C[C@H](NC(=O)CN1C(=O)CC[C@H](NC(=O)c2cc(OC)c(OC)c(OC)c2)C1=O)C(=O)OC | 21.7 µM | 0.5 µM
CC(C)C[C@H](NC(=O)[C@@H](O)[C@H](N)Cc1ccccc1)C(=O)O [UBENIMEX] |  | 3.4 µM
